System: tobacco budworm (Heliothis virescens [Fabricius])
Test: surface-treated diet test against the tobacco budworm
Type: in vivo
Conditions: tobacco budworm second instar larvae, 0.25 millimoles of candidate insecticide on the surface of the diet, five-day exposure; for Percent Mortality: compared to total number of insects infested; for Percent Growth Inhibition: inhibition of insect weight relative to untreated controls
Procedure, shortened: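 Wheat germ artificial diet surface-treated with 40 µL of 50 mM DMSO stock diluted 1:7 in 1:1 water/acetone (0.25 millimolar on diet), or sub-multiples for rate tests. One second-instar larva per well, 25° C, 60% RH, 5 days; percent weight inhibition vs DMSO controls and percent mortality.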

Row | SMILES | Percent Mortality [%] | Percent Growth Inhibition [%]
1 | O=C(Nc1cc(F)cc(F)c1)OC(c1ccc(F)cc1)C1CCN(Cc2ccc(Oc3ncccn3)cc2)CC1 (stereo not shown) [Compound 717] | 100 | 100
2 | O=C(Nc1ccc(Cl)cc1)OC(c1ccc(Cl)cc1Cl)C1CCN(Cc2ccc(Oc3ncccn3)cc2)CC1 (stereo not shown) [Compound 718] | 100 | 100
3 | O=C(Nc1cccc(F)c1)OC(c1ccc(Cl)cc1Cl)C1CCN(Cc2ccc(Oc3ncccn3)cc2)CC1 (stereo not shown) [Compound 719] | 100 | 100
4 | O=C(Nc1cc(F)cc(F)c1)OC(c1ccc(Cl)cc1Cl)C1CCN(Cc2ccc(Oc3ncccn3)cc2)CC1 (stereo not shown) [Compound 720] | 100 | 100
5 | O=C(Nc1ccc(Cl)cc1)OC(c1ccc(Cl)c(Cl)c1)C1CCN(Cc2ccc(Oc3ncccn3)cc2)CC1 (stereo not shown) [Compound 721] | 100 | 100
6 | O=C(Nc1ccc(F)cc1)OC(c1ccc(Cl)c(Cl)c1)C1CCN(Cc2ccc(Oc3ncccn3)cc2)CC1 (stereo not shown) [Compound 722] | 83 | 100
7 | O=C(Nc1cc(F)cc(F)c1)OC(c1ccc(Cl)c(Cl)c1)C1CCN(Cc2ccc(Oc3ncccn3)cc2)CC1 (stereo not shown) [Compound 723] | 100 | 100
8 | O=C(Nc1cccc(C(F)(F)F)c1)OC(c1ccc(Cl)c(Cl)c1)C1CCN(Cc2ccc(Oc3ncccn3)cc2)CC1 (stereo not shown) [Compound 724] | 100 | 100
9 | O=C(Nc1ccc(C(F)(F)F)cc1)OC(c1ccc(Cl)c(Cl)c1)C1CCN(Cc2ccc(Oc3ncccn3)cc2)CC1 (stereo not shown) [Compound 725] | 100 | 100
10 | O=C(Nc1ccc(Cl)cc1)OC(c1cc(Cl)cc(Cl)c1)C1CCN(Cc2ccc(Oc3ncccn3)cc2)CC1 (stereo not shown) [Compound 726] | 100 | 100
11 | O=C(Nc1cccc(F)c1)OC(c1cc(Cl)cc(Cl)c1)C1CCN(Cc2ccc(Oc3ncccn3)cc2)CC1 (stereo not shown) [Compound 727] | 100 | 100
12 | O=C(Nc1cc(F)cc(F)c1)OC(c1cc(Cl)cc(Cl)c1)C1CCN(Cc2ccc(Oc3ncccn3)cc2)CC1 (stereo not shown) [Compound 728] | 100 | 100
13 | O=C(Nc1ccc(Cl)cc1)OC(c1ccc(C(F)(F)F)cc1)C1CCN(Cc2ccc(Oc3ncccn3)cc2)CC1 (stereo not shown) [Compound 729] | 100 | 100
14 | O=C(Nc1ccc(F)cc1F)OC(c1ccc(C(F)(F)F)cc1)C1CCN(Cc2ccc(Oc3ncccn3)cc2)CC1 (stereo not shown) [Compound 730] | 100 | 100
15 | O=C(Nc1cc(F)cc(F)c1)OC(c1ccc(C(F)(F)F)cc1)C1CCN(Cc2ccc(Oc3ncccn3)cc2)CC1 (stereo not shown) [Compound 731] | 100 | 100
16 | O=C(Nc1ccc(F)c(F)c1)OC(c1ccc(C(F)(F)F)cc1)C1CCN(Cc2ccc(Oc3ncccn3)cc2)CC1 (stereo not shown) [Compound 732] | 100 | 100
17 | O=C(Nc1ccc(Cl)cc1)OC(c1ccc(OC(F)(F)F)cc1)C1CCN(Cc2ccc(Oc3ncccn3)cc2)CC1 (stereo not shown) [Compound 733] | 100 | 100
18 | O=C(Nc1cccc(F)c1)OC(c1ccc(OC(F)(F)F)cc1)C1CCN(Cc2ccc(Oc3ncccn3)cc2)CC1 (stereo not shown) [Compound 734] | 100 | 100
19 | O=C(Nc1cc(F)cc(F)c1)OC(c1ccc(OC(F)(F)F)cc1)C1CCN(Cc2ccc(Oc3ncccn3)cc2)CC1 (stereo not shown) [Compound 735] | 100 | 100
20 | O=C(Nc1cc(F)cc(F)c1)OC(c1ccc(C(F)(F)F)cc1)C1CCN(Cc2ccc(Oc3cccnn3)cc2)CC1 (stereo not shown) [Compound 736] | 100 | 100
21 | O=C(Nc1ccc(Cl)cc1)OC(c1ccc(C(F)(F)F)cc1)C1CCN(Cc2ccc(Oc3ccc(Cl)nn3)cc2)CC1 (stereo not shown) [Compound 737] | 100 | 100
22 | O=C(Nc1cc(F)cc(F)c1)OC(c1ccc(C(F)(F)F)cc1)C1CCN(Cc2ccc(Oc3ccc(Cl)nn3)cc2)CC1 (stereo not shown) [Compound 738] | 100 | 100
23 | O=C(Nc1cc(F)cc(F)c1)OC(c1ccc(C(F)(F)F)cc1)C1CCN(Cc2ccc(Oc3ncncn3)cc2)CC1 (stereo not shown) [Compound 739] | 0 | 100
24 | COc1nc(OC)nc(Oc2ccc(CN3CCC(C(OC(=O)Nc4cc(F)cc(F)c4)c4ccc(C(F)(F)F)cc4)CC3)cc2)n1 (stereo not shown) [Compound 740] | 100 | 100

Row | SMILES | Percent Mortality [%] | Percent Growth Inhibition [%]
25 | CCCOc1ccc(C[N+]2([O-])CCC(C(OC(=O)Nc3cc(F)cc(F)c3)c3ccc(C(F)(F)F)cc3)CC2)cc1 (stereo not shown) [Compound 741] | 100 | 100
26 | CCON=Cc1ccc(C[N+]2([O-])CCC(C(OC(=O)Nc3cccc(F)c3)c3ccc(C(F)(F)F)cc3)CC2)cc1 (stereo not shown) [Compound 742] | 100 | 100
27 | CCON=Cc1ccc(C[N+]2([O-])CCC(C(OC(=O)Nc3cc(F)cc(F)c3)c3ccc(C(F)(F)F)cc3)CC2)cc1 (stereo not shown) [Compound 743] | 100 | 100
28 | C#CCON=Cc1ccc(C[N+]2([O-])CCC(C(OC(=O)Nc3cc(F)cc(F)c3)c3ccc(C(F)(F)F)cc3)CC2)cc1 (stereo not shown) [Compound 744] | 100 | 100
29 | CC(C)OC(=O)c1ccc(C[N+]2([O-])CCC(C(OC(=O)Nc3ccc(Cl)cc3)c3ccc(C(F)(F)F)cc3)CC2)cc1 (stereo not shown) [Compound 745] | 100 | 100
30 | CC(C)OC(=O)Nc1ccc(C[N+]2([O-])CCC(C(OC(=O)Nc3cc(F)cc(F)c3)c3ccc(C(F)(F)F)cc3)CC2)cc1 (stereo not shown) [Compound 746] | 100 | 100
31 | O=C(Nc1ccc(Cl)cc1)OC(c1ccc(C(F)(F)F)cc1)C1CC[N+]([O-])(Cc2ccc(-c3ccccc3)cc2)CC1 (stereo not shown) [Compound 747] | 100 | 100
32 | O=C(Nc1cc(F)cc(F)c1)OC(c1ccc(C(F)(F)F)cc1)C1CC[N+]([O-])(Cc2ccc(-c3ccccc3)cc2)CC1 (stereo not shown) [Compound 748] | 100 | 100
33 | O=C(Nc1cc(F)cc(F)c1)OC(c1ccc(C(F)(F)F)cc1)C1CC[N+]([O-])(Cc2ccc(Oc3ccccc3)cc2)CC1 (stereo not shown) [Compound 749] | 100 | 100
34 | O=C(Nc1cc(F)cc(F)c1)OC(c1ccc(C(F)(F)F)cc1)C1CC[N+]([O-])(Cc2ccc(Oc3ccccc3F)cc2)CC1 (stereo not shown) [Compound 750] | 100 | 100
35 | O=C(Nc1cc(F)cc(F)c1)OC(c1ccc(C(F)(F)F)cc1)C1CC[N+]([O-])(Cc2ccc(Oc3c(F)cccc3F)cc2)CC1 (stereo not shown) [Compound 751] | 100 | 100
36 | O=C(Nc1cc(F)cc(F)c1)OC(c1ccc(F)cc1)C1CC[N+]([O-])(Cc2ccc(Oc3ccccn3)cc2)CC1 (stereo not shown) [Compound 752] | 100 | 100
37 | O=C(Nc1ccc(F)cc1F)OC(c1ccc(C(F)(F)F)cc1)C1CC[N+]([O-])(Cc2ccc(Oc3ccccn3)cc2)CC1 (stereo not shown) [Compound 753] | 100 | 100
38 | O=C(Nc1ccc(F)c(F)c1)OC(c1ccc(C(F)(F)F)cc1)C1CC[N+]([O-])(Cc2ccc(Oc3ccccn3)cc2)CC1 (stereo not shown) [Compound 754] | 100 | 100
39 | O=C(Nc1cc(F)cc(F)c1)OC(c1ccc(C(F)(F)F)cc1)C1CC[N+]([O-])(Cc2ccc(Oc3ncccc3Cl)cc2)CC1 (stereo not shown) [Compound 755] | 100 | 100
40 | O=C(Nc1cc(F)cc(F)c1)OC(c1ccc(C(F)(F)F)cc1)C1CC[N+]([O-])(Cc2ccc(Oc3ccc(Cl)cn3)cc2)CC1 (stereo not shown) [Compound 756] | 100 | 100
41 | O=C(Nc1cc(F)cc(F)c1)OC(c1ccc(C(F)(F)F)cc1)C1CC[N+]([O-])(Cc2ccc(Oc3cccc(Cl)n3)cc2)CC1 (stereo not shown) [Compound 757] | 100 | 100
42 | O=C(Nc1cc(F)cc(F)c1)OC(c1ccc(C(F)(F)F)cc1)C1CC[N+]([O-])(Cc2ccc(Oc3ncc(Cl)cc3Cl)cc2)CC1 (stereo not shown) [Compound 758] | 100 | 100
43 | O=C(Nc1cc(F)cc(F)c1)OC(c1ccc(C(F)(F)F)cc1)C1CC[N+]([O-])(Cc2ccc(Oc3ncccc3C(F)(F)F)cc2)CC1 (stereo not shown) [Compound 759] | 100 | 100
44 | O=C(Nc1cc(F)cc(F)c1)OC(c1ccc(C(F)(F)F)cc1)C1CC[N+]([O-])(Cc2ccc(Oc3cc(C(F)(F)F)ccn3)cc2)CC1 (stereo not shown) [Compound 760] | 100 | 100
45 | COC(=O)N(c1ccc(C[N+]2([O-])CCC(C(OC(=O)Nc3cc(F)cc(F)c3)c3ccc(C(F)(F)F)cc3)CC2)cc1)c1ccccn1 (stereo not shown) [Compound 761] | 100 | 100
46 | O=C(Nc1ccc(Cl)cc1)OC(c1ccc(C(F)(F)F)cc1)C1CC[N+]([O-])(Cc2ccc(Oc3ncccn3)cc2)CC1 (stereo not shown) [Compound 762] | 100 | 100
47 | O=C(Nc1ccc(F)cc1F)OC(c1ccc(C(F)(F)F)cc1)C1CC[N+]([O-])(Cc2ccc(Oc3ncccn3)cc2)CC1 (stereo not shown) [Compound 763] | 100 | 100

Reference: US7300946B2, “N-(substituted arylmethyl)-4-(disubstituted methyl) piperidines and pyridines” (Bayer CropScience AG, priority 2002, dated 2007)
